# What was measured:
# Clostridium perfringens = details: antibiotic-susceptible clinical isolate
# [1] = test system: Staphylococcus aureus FDA486; test: Murine skin infection model, topical treatment; type: in vivo, mice
# Method: (§1) The skin of mice was infected with Staphylococcus aureus or Streptococcus pyogenes and subsequently given a total of three treatments at three hourly intervals. Three hours after the last treatment, skin biopsies were collected and the number of colony forming units (CFUs) present in the skin sample was determined. Results are shown in FIGS. 1 and 2, expressed as the number of colony forming units per mouse.
# In experiment 1 (FIG. 1), compound 2 was applied to the murine skin as part of either a cream or a gel containing 2% (w/w) of compound 2. The same cream or gel without compound 2 was used as a negative control (placebo).
# as §1, with “3, 4” for “1”, “5” for “2,”
# In experiment 1 (FIG. 3), compound 7 was applied to the murine skin as part of either a cream or a gel containing 2% (w/w) of compound 7. The same cream or gel without compound 7 was used as a negative control (placebo). Bactroban 2% cream was used as a positive control.
# In experiment 3 (FIG. 5), compound 8 was applied in a 2% cream formulation on a Staphylococcus aureus FDA 486 infection in the murine skin infection model. A placebo cream and two known antibacterials, “Fucidin (fucidic acid) ointment 2%” and “Bactroban (mupericin) cream 2%” were used as controls.
# Enterococcus gallinarum = test: MIC microbroth dilution (CLSI); type: cell-based; details: vancomycin-resistant (VanC) clinical isolate
# Text: (§2) Cation-adjusted Mueller-Hinton broth (Oxoid Ltd., Basingstoke, UK and Trek Diagnostic Systems Ltd., East Grinstead, UK) (supplemented with 5% laked horse blood for Streptococcus spp., Corynebacterium jeikeium and Listeria monocytogenes) was used for aerobic bacteria, with an initial inoculum of approximately 10^5 colony-forming units (CFU)/m L.
# [2] = test system: Staphylococcus saprophyticus; test: MIC microbroth dilution (CLSI); type: cell-based; details: antibiotic susceptible clinical isolate
# Text: as §2
# Cryptococcus neoformans = test: MIC microbroth dilution (CLSI); type: cell-based; details: G.R. Micro collection
# [3] = test system: Trichophyton mentagrophytes; test: MIC microbroth dilution (CLSI); type: cell-based; details: G.R. Micro collection
# [4] = test system: Methicillin resistant Staphylococcus aureus (MRSA) strain ATCC 33591; details: Table 5; strain ATCC 33591
# S. pyogenes = test: Antimicrobial assay, Table 5; type: cell-based
# Streptococcus pyogenes [5] = test: Murine skin infection model, topical treatment; type: in vivo, mice; details: FIG. 4, Streptococcus pyogenes CS 301
# Method: as §1
# In experiment 2 (FIG. 2), compound 2 was applied in two different concentrations, as either a 1% or a 2% gel. A placebo gel and a known antibacterial “bactroban” were used as controls.
# as §1, with “3, 4” for “1”, “5” for “2,”
# In experiment 2 (FIG. 4), compound 7 was applied in two different concentrations, as either a 1% or a 2% gel. A placebo gel and a known antibacterial “bactroban (mupericin)” were used as controls.
# [6] = test system: Methicillin resistant Staphylococcus epidermidis (MRSE) strain ATCC 27626; details: Table 5; strain ATCC 27626
# [7] = test system: Staphylococcus aureus, strain ATCC 25923; details: Table 5; strain ATCC 25923
# Candida tropicalis = test: MIC microbroth dilution (CLSI); type: cell-based; details: ATCC750 - reference strain
# P. aeruginosa = test: Antimicrobial assay, Table 5; type: cell-based
# Enterococcus faecalis = type: cell-based; details: vancomycin-resistant (VanB) clinical isolate
# Text: as §2
# (§3) To evaluate whether freezing affected the activity of the peptides some MIC determinations were repeated using plates containing freshly-prepared Mueller-Hinton broth.
# [8] = test system: Candida (Issatchenkia) krusei
# C. albicans = test: Antimicrobial assay, Table 5; type: cell-based
# E. coli = test: Antimicrobial assay, Table 5; type: cell-based
# [9] = test system: Staphylococcus epidermidis; type: cell-based
# Text: as §2
# Corynebacterium jeikeium = type: cell-based
# Text: as §2
# [10] = test system: Staphylococcus haemolyticus; type: cell-based
# Text: as §2
# Salmonella sp = test: MIC microbroth dilution (CLSI); type: cell-based
# Text: as §2
# [11] = test system: Stenotrophomonas maltophilia; test: MIC microbroth dilution (CLSI); type: cell-based; details: antibiotic-susceptible clinical isolate
# Text: as §2
# Shigella sp = test: MIC microbroth dilution (CLSI); type: cell-based; details: antibiotic-susceptible clinical isolate
# Text: as §2
# Listeria monocytogenes = test: MIC microbroth dilution (CLSI); type: cell-based; details: antibiotic-susceptible clinical isolate
# Text: as §2
# [12] = test system: Trichophyton interdigitale; test: MIC microbroth dilution (CLSI); type: cell-based; details: G.R. Micro collection
# Staphylococcus aureus = type: cell-based
# Text: as §2, §3
# Aspergillus niger = test: MIC microbroth dilution (CLSI); type: cell-based; details: G.R. Micro collection
# Microsporum canis = test: MIC microbroth dilution (CLSI); type: cell-based; details: G.R. Micro collection
# Propionibacterium acnes = test: MIC microbroth dilution (CLSI); type: cell-based
# Method: Supplemented Brucella broth (SBB) was used for the anaerobic strains with an inoculum of approximately 10^6 CFU/mL. SBB is a broth consisting of 1% peptone, 0.5% ‘Lab-lemco’, 1% glucose and 0.5% sodium chloride supplemented with 5 μg/L haemin and 1 μg/L vitamin K (both obtained from Sigma Aldrich Ltd.) Yeast and filamentous fungal MIC were performed in MOPS buffered RPMI 1640 medium (MOPS buffer obtained from Sigma Aldrich Ltd., RPMI 1640 obtained from Invitrogen Ltd, Paisley, Scotland). The yeast inocula were in the range 7.5×10^2-4×10^3 CFU/mL and the filamentous fungi approximately 8×10^3-1×10^5 CFU/mL
# MICs were determined as described in Example 2.
# Streptococcus agalactiae = type: cell-based
# Text: as §2
# Klebsiella aerogenes = type: cell-based
# Text: as §2
# Enterobacter sp = type: cell-based
# Text: as §2
# Group G Streptococcus = type: cell-based
# Text: as §2
# Enterococcus faecium = type: cell-based
# Text: as §2
# Morganella morganii = type: cell-based
# Text: as §2
# Streptococcus pyogenes [13] = type: cell-based
# Text: as §2
# [14] = antibiotic-susceptible clinical isolate
compound,measurement,setting,value
CC(C)NC(=O)[C@H](CCCNC(=N)N)NC(=O)[C@H](Cc1c(C(C)(C)C)[nH]c2c(C(C)(C)C)cc(C(C)(C)C)cc12)NC(=O)[C@@H](N)CCCNC(=N)N [Compound 7],MIC,Clostridium perfringens,≥128 µg/mL
same,number of colony forming units (CFU) in skin biopsy,"[1]; FIG. 3, cream or gel 2% (w/w), three treatments, compared to placebo",number of CFUs was reduced
same,MIC,Enterococcus gallinarum,8 µg/mL
same,MIC,[2],2 µg/mL
same,MIC,Cryptococcus neoformans,8 µg/mL
same,MIC,[3],8 µg/mL
same,MRSA,[4],<2 mg/L
same,S. pyogenes,S. pyogenes,<2 mg/L
same,"number of CFUs, 2% gel compared with 1% gel",Streptococcus pyogenes [5],more effective than the gel containing only 1% of compound 7
same,number of colony forming units (CFU) in skin biopsy,Streptococcus pyogenes [5]; 1% or 2% gel,more effective at reducing the number of CFUs from a Streptococcus pyogenes CS 301 infection than the placebo gel or the bactroban
same,MRSE,[6],<2 mg/L
same,S. aureus,[7],<2 mg/L
same,MIC,Candida tropicalis,4 µg/mL
same,P. aeruginosa,P. aeruginosa,7 mg/L
same,MIC,Enterococcus faecalis,≥128 µg/mL
same,MIC,[8],8 µg/mL
same,C. albicans,C. albicans,25 mg/L
same,E. coli,E. coli,7 mg/L
same,MIC,[9],4 µg/mL
same,MIC,Corynebacterium jeikeium,8 µg/mL
same,MIC,[10],4 µg/mL
CCCCCCNC(=O)[C@H](CCCNC(=N)N)NC(=O)[C@H](Cc1c(C(C)(C)C)[nH]c2c(C(C)(C)C)cc(C(C)(C)C)cc12)NC(=O)[C@@H](N)CCCNC(=N)N [Compound 8],number of colony forming units (CFU) in skin biopsy,"[1]; FIG. 5, 2% cream formulation",more effective at reducing the number of CFUs than the placebo and fucidin or bactroban
same,MIC,Salmonella sp; [14],8 µg/mL
same,MIC,Salmonella sp; multi-drug resistant clinical isolate,8 µg/mL
same,MIC,[11],4 µg/mL
same,MIC,Shigella sp,4 µg/mL
same,MIC,Listeria monocytogenes,8 µg/mL
same,MIC,Enterococcus gallinarum,4 µg/mL
same,MIC,[2],0.5 µg/mL
same,MIC,[12],4 µg/mL
same,MIC,Cryptococcus neoformans,2 µg/mL
same,MIC,[3],4 µg/mL
same,MRSA,[4],2 mg/L
same,S. pyogenes,S. pyogenes,2 mg/L
same,MRSE,[6],<1 mg/L
same,MIC,Candida parapsilosis,8 µg/mL
same,S. aureus,[7],2 mg/L
same,MIC,Candida tropicalis,4 µg/mL
same,P. aeruginosa,P. aeruginosa,5 mg/L
same,MIC,Staphylococcus aureus,4 µg/mL
same,MIC,Aspergillus niger,4 µg/mL
same,C. albicans,C. albicans,5 mg/L
same,MIC,Microsporum canis,4 µg/mL
same,MIC,Propionibacterium acnes; antibiotic-resistant clinical isolate,2 µg/mL
same,MIC,Propionibacterium acnes; [14],4 µg/mL
same,E. coli,E. coli,5 mg/L
same,MIC,Streptococcus agalactiae,8 µg/mL
same,MIC,Klebsiella aerogenes,8 µg/mL
same,MIC,Enterobacter sp,8 µg/mL
same,MIC,Group G Streptococcus,8 µg/mL
same,MIC,Enterococcus faecium,4 µg/mL
same,MIC,Morganella morganii,8 µg/mL
same,MIC,Streptococcus pyogenes [13],8 µg/mL
same,MIC,[10],4 µg/mL
